Activity calls are given as the source filed them. The rule behind the calls is not given here.
Key:
[1] = molecular target: Vascular endothelial growth factor receptor 2 (Homo sapiens, UniProt P35968); assay: Binding affinity to VEGFR2 (unknown origin) assessed as inhibition constant
[2] = molecular target: Cyclin-dependent kinase 1 (Homo sapiens, UniProt P06493); assay: Binding affinity to CDK1 (unknown origin) assessed as inhibition constant
[3] = AUC (0 to infinity) in nu/nu mouse at 40 mg/kg, ip by LCMS analysis; assay type: ADME, organism-based; conditions: in vivo
[4] = Cmax in nu/nu mouse at 40 mg/kg, ip by LCMS analysis; assay type: ADME, organism-based; conditions: in vivo
[5] = AUC (0 to infinity) in Sprague-Dawley rat at 4 mg/kg, iv administered as bolus dose by LCMS analysis; assay type: ADME, organism-based; conditions: in vivo
[6] = Terminal half life in Sprague-Dawley rat at 4 mg/kg, iv administered as bolus dose by LCMS analysis; assay type: ADME, organism-based; conditions: in vivo, read-out: beta t1/2 (converted)
[7] = system: HT-29; assay: Inhibition of camptothecin induced DNA damage in human HT-29 cells assessed as increase in mitotic index by measuring histone H3 phosphorylation at S10 residue at 0.001 to 1 uM measured after 16 hrs presence of nocodazole by dot blot assay; assay type: functional, cell-based; conditions: HT-29, 16 h
[8] = system: HT-29; assay: Induction of apoptosis in gemcitabine induced human HT-29 cells assessed as apoptotic cell death measured after 24 hrs by PI staining based flow cytometry analysis (reference value: 0.7%); assay type: functional
[9] = system: HT-29; assay: Induction of apoptosis in gemcitabine induced human HT-29 cells assessed as apoptotic cell death measured after 32 hrs by PI staining based flow cytometry analysis (reference value: 1.2%); assay type: functional
[10] = system: HT-29; assay: Induction of apoptosis in gemcitabine induced human HT-29 cells assessed as apoptotic cell death measured after 48 hrs by PI staining based flow cytometry analysis (reference value: 8.6%); assay type: functional
[11] = system: HT-29; assay: Potentiation of camptothecin induced cytotoxicity in human HT-29 cells assessed as cell survival at 180 nM measured after 4 to 48 hrs by coulter counter method relative to camptothecin alone; assay type: functional; conditions: time 4-48 hrs, read-out: Activity
[12] = system: COLO 205; assay: Antiproliferative activity against human COLO 205 cells deficit of p53 expression assessed as inhibition of cell growth measured after 96 hrs by MTT assay; assay type: functional, cell-based; conditions: COLO 205, 96 h
[13] = system: HT-29; assay: Potentiation factor, ratio of IC50 for human HT-29 cells to IC50 for human HT-29 cells in presence of gemcitabine; assay type: functional
[14] = system: HT-29; assay: Potentiation factor, ratio of IC50 for human HT-29 cells to IC50 for human HT-29 cells in presence of doxorubicin; assay type: functional
[15] = system: HT-29; assay: Potentiation factor, ratio of IC50 for human HT-29 cells to IC50 for human HT-29 cells in presence of mytomicin-C; assay type: functional
[16] = system: COLO 205; assay: Potentiation factor, ratio of IC50 for human COLO 205 cells to IC50 for human COLO 205 cells in presence of SN-38; assay type: functional
[17] = system: COLO 205; assay: Potentiation factor, ratio of IC50 for human COLO 205 cells to IC50 for human COLO 205 cells in presence of doxorubicin; assay type: functional
[18] = system: COLO 205; assay: Potentiation factor, ratio of IC50 for human COLO 205 cells to IC50 for human COLO 205 cells in presence of mytomicin-C; assay type: functional
[19] = system: PC-3; assay: Potentiation factor, ratio of IC50 for human PC-3 cells to IC50 for human PC-3 cells in presence of gemcitabine; assay type: functional
[20] = system: PC-3; assay: Potentiation factor, ratio of IC50 for human PC-3 cells to IC50 for human PC-3 cells in presence of carboplatin; assay type: functional
[21] = system: PC-3; assay: Potentiation factor, ratio of IC50 for human PC-3 cells to IC50 for human PC-3 cells in presence of doxorubicin; assay type: functional
[22] = system: MDA-MB-231; assay: Potentiation factor, ratio of IC50 for human MDA-MB-231 cells to IC50 for human MDA-MB-231 cells in presence of gemcitabine; assay type: functional
[23] = system: MDA-MB-231; assay: Potentiation factor, ratio of IC50 for human MDA-MB-231 cells to IC50 for human MDA-MB-231 cells in presence of mytomicin-C; assay type: functional
[24] = system: K562; assay: Potentiation factor, ratio of IC50 for human K562 cells to IC50 for human K562 cells in presence of SN-38; assay type: functional
[25] = system: K562; assay: Potentiation factor, ratio of IC50 for human K562 cells to IC50 for human K562 cells in presence of carboplatin; assay type: functional
[26] = system: K562; assay: Potentiation factor, ratio of IC50 for human K562 cells to IC50 for human K562 cells in presence of doxorubicin; assay type: functional
[27] = system: HT-29; assay: Induction of DNA damage in gemcitabine induced human HT-29 cells assessed as increase in intensity of H2AX phosphorylation at 360 nM measured after 24 hrs by immunoblot analysis; assay type: functional, cell-based
[28] = system: COLO 205; assay: Antitumor activity against human COLO 205 cells xenografted in athymic nude mouse model assessed as tumor growth inhibition at 30 mg/kg, ip administered once daily in presence of gemcitabine (Gemcitabine alone = 40%); assay type: functional; conditions: read-out: TGI
[29] = system: COLO 205; assay: Antitumor activity against human COLO 205 cells xenografted in athymic nude mouse model assessed as tumor growth inhibition at 24 mg/kg, ip administered twice daily in presence of gemcitabine (Gemcitabine alone= 58%); assay type: functional; conditions: read-out: TGI
[30] = system: COLO 205; assay: Antitumor activity against human COLO 205 cells xenografted in athymic nude mouse model assessed as tumor growth inhibition at 20 mg/kg, ip administered once daily in presence of gemcitabine (Gemcitabine alone= 58%); assay type: functional; conditions: read-out: TGI
[31] = system: COLO 205; assay: Antitumor activity against human COLO 205 cells xenografted in athymic nude mouse model assessed as tumor growth inhibition at 4 mg/kg, ip administered once daily in presence of gemcitabine (Gemcitabine alone= 58%); assay type: functional; conditions: read-out: TGI
[32] = system: COLO 205; assay: Antitumor activity against human COLO 205 cells xenografted in athymic nude mouse model assessed as potentiated tumor growth inhibition at 30 mg/kg, ip administered once daily in presence of gemcitabine relative to control; assay type: functional; conditions: read-out: TGI
[33] = system: COLO 205; assay: Antitumor activity against human COLO 205 cells xenografted in athymic nude mouse model assessed as tumor growth delay by measuring test to control tumor ratio at 15 mg/kg, ip administered once daily in presence of gemcitabine (Gemcitabine alone = 3%); assay type: functional
[34] = system: COLO 205; assay: Antitumor activity against human COLO 205 cells xenografted in athymic nude mouse model assessed as gross log cell kill at 15 mg/kg, ip administered once daily in presence of gemcitabine (Gemcitabine alone = 0.27%); assay type: functional
[35] = Toxicity in athymic nude mouse assessed as effect on body weight at 4 to 20 mg/kg, ip administered twice daily in presence of gemcitabine; assay type: organism-based; conditions: in vivo, dose 4-20 mg/kg
[36] = system: COLO 205; assay: In vivo inhibition of Chk1 in athymic nude mouse xenografted with gemcitabine treated human COLO 205 cells assessed as increase in histone H3 phosphorylation level at Ser10 residues at 7.5 to 15 mg/kg by immunohistochemical analysis; assay type: functional, organism-based; conditions: dose 7.5-15 mg/kg
[37] = system: COLO 205; assay: In vivo inhibition of Chk1 in athymic nude mouse xenografted with gemcitabine treated human COLO 205 cells assessed as increase in phospho histone H2AX level at 7.5 to 15 mg/kg by immunohistochemical analysis; assay type: functional, organism-based; conditions: dose 7.5-15 mg/kg

Sequence of Cyclin-dependent kinase 1 (P06493 whole entry): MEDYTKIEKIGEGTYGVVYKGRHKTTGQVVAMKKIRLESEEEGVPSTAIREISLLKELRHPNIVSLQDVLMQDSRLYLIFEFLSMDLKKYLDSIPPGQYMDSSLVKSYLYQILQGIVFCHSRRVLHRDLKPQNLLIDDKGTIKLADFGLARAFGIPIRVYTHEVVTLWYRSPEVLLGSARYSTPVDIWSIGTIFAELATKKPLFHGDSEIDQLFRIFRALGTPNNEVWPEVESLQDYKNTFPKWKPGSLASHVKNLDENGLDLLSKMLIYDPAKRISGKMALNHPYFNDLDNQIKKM
Sequence of Vascular endothelial growth factor receptor 2 (P35968 whole entry): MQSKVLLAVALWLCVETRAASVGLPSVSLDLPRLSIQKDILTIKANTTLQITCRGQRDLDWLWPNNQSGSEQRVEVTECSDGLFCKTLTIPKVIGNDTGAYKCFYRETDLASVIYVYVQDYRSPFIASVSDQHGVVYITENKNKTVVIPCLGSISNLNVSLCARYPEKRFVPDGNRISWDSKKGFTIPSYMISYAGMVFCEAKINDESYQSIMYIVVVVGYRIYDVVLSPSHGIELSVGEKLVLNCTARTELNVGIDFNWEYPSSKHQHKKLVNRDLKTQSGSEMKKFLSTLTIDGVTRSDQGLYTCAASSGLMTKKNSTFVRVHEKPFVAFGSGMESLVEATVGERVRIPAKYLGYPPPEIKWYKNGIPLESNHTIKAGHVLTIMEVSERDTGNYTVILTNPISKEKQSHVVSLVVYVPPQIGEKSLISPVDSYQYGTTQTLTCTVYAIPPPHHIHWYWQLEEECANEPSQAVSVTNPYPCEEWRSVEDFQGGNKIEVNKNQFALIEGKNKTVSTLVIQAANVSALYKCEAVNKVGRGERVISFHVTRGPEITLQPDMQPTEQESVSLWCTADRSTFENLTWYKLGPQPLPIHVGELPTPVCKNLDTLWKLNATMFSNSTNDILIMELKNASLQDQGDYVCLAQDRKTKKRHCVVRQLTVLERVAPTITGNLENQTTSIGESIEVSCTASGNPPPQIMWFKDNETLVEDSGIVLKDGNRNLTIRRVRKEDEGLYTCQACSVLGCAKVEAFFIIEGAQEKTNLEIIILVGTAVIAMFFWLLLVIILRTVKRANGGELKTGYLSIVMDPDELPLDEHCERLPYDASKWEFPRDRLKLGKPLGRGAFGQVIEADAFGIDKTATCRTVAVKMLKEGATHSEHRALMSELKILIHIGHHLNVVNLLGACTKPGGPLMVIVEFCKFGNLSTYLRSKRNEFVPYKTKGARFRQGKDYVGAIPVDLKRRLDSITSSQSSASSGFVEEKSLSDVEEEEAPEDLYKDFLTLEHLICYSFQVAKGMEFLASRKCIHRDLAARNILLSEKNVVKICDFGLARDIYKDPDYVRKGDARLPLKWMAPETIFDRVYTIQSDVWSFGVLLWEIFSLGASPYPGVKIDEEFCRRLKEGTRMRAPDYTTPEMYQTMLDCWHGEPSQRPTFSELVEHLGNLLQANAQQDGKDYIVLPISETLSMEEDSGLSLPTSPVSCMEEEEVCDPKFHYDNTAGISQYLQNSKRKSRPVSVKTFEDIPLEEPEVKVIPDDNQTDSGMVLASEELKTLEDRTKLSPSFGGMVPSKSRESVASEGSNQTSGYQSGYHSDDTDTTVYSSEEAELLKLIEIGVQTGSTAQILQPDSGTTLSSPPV

**Q.** With Cn1cc(-c2[nH]c3cc(NC(=O)[C@H](N)C4CCCCC4)cc4c3c2C=NNC4=O)cn1 as the compound, how does the Ki [1] read?
**A.** Its Ki is 16 nM.

**Q.** And the Ki [2]?
**A.** The Ki was 9.9 nM.

**Q.** What about the AUC(0-inf) [3] of the same compound?
**A.** The AUC(0-inf) was 25800 ng·h/mL.

**Q.** And the Cmax [4]?
**A.** The Cmax was 6780 ng/mL.

**Q.** And the AUC(0-inf) [5]?
**A.** The AUC(0-inf) was 5720 ng·h/mL.

**Q.** And the half-life [6]?
**A.** The half-life was 2.9 h.

**Q.** What about the EC50 [7] of the same compound?
**A.** The EC50 was 42 nM.

**Q.** What about the Activity [8] of the same compound?
**A.** Its Activity is 5.2%.

**Q.** What about the Activity [9] of the same compound?
**A.** The Activity was 18.1%.

**Q.** What about the Activity [10] of the same compound?
**A.** The Activity was 78.6%.

**Q.** And the viability at 0.18 µM [11]?
**A.** Its viability at 0.18 µM is 90%.

**Q.** And the IC50 [12]?
**A.** Its IC50 is 1300 nM.

**Q.** What about the PF50 [13] of the same compound?
**A.** The PF50 was 9.

**Q.** What about the PF50 [14] of the same compound?
**A.** The PF50 was 2.2.

**Q.** And the PF50 [15]?
**A.** The PF50 was 3.7.

**Q.** What about the PF50 [16] of the same compound?
**A.** The PF50 was 2.1.

**Q.** And the PF50 [17]?
**A.** Its PF50 is 1.1.

**Q.** What about the PF50 [18] of the same compound?
**A.** The PF50 was 5.3.

**Q.** What about the PF50 [19] of the same compound?
**A.** Its PF50 is 12.2.

**Q.** And the PF50 [20]?
**A.** The PF50 was 3.1.

**Q.** What about the PF50 [21] of the same compound?
**A.** Its PF50 is 1.5.

**Q.** And the PF50 [22]?
**A.** Its PF50 is 3.6.

**Q.** And the PF50 [23]?
**A.** The PF50 was 1.2.

**Q.** And the PF50 [24]?
**A.** Its PF50 is 1.9.

**Q.** What about the PF50 [25] of the same compound?
**A.** Its PF50 is 1.9.

**Q.** And the PF50 [26]?
**A.** Its PF50 is 1.1.

**Q.** And the Activity [27]?
**A.** Its Activity is “Active”.

**Q.** And the inhibition in vivo at 30 mg/kg [28]?
**A.** The inhibition in vivo at 30 mg/kg was 64%.

**Q.** What about the inhibition in vivo at 24 mg/kg [29] of the same compound?
**A.** Its inhibition in vivo at 24 mg/kg is 81%.

**Q.** What about the inhibition in vivo at 20 mg/kg [30] of the same compound?
**A.** Its inhibition in vivo at 20 mg/kg is 76%.

**Q.** What about the inhibition in vivo at 4 mg/kg [31] of the same compound?
**A.** The inhibition in vivo at 4 mg/kg was 58%.

**Q.** And the inhibition in vivo at 30 mg/kg [32]?
**A.** The inhibition in vivo at 30 mg/kg was 41%.

**Q.** And the T/C [33]?
**A.** The T/C was 7.75.

**Q.** And the LCK [34]?
**A.** The LCK was 0.71.

**Q.** What about the Activity [35] of the same compound?
**A.** The Activity was “Non-Toxic”.

**Q.** What about the inhibition [36] of the same compound?
**A.** Its inhibition is “Active”.

**Q.** And the inhibition [37]?
**A.** The inhibition was “Active”.
